21 molecules from patent US10669272B2, “Substituted naphthyridinone compounds useful as T cell activators” (BRISTOL-MYERS SQUIBB COMPANY, priority 2018, dated 2020) can be followed below.

Assay [1] addresses T1, human DGKα (Homo sapiens, UniProt P23743).
T1 construct: TVMV protease cleavage site (C); Hexa-His (C); made in house; host or cells: Sf9 insect cells (baculovirus, Bac-to-Bac)
As to the kind of experiment: DGKα LIPGLO assay (extruded liposome substrate), in vitro DGK inhibition. It is filed as biochemical. Particulars: read-out: DGKa LIPGLO IC50.

Assay [2] addresses T2, human DGKζ (Homo sapiens, UniProt Q13574).
T2 construct: TVMV protease cleavage site (C); Hexa-His (C); made in house; host or cells: Sf9 insect cells (baculovirus, Bac-to-Bac)
As to the kind of experiment: DGKζ LIPGLO assay (extruded liposome substrate), in vitro DGK inhibition. It is filed as biochemical. Particulars: read-out: DGKz LIPGLO IC50.

Assay [3] has as its system naïve human CD8 T cells. Put plainly: Human CD8 T cells IFN-γ assay.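 Note: Naïve human CD8 T cells stimulated with plate-bound anti-CD3 and soluble anti-CD28, IFN-γ in supernatant quantified by AlphaLISA and converted to pg/mL.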 It is filed as cell-based. As to conditions: read-out: HuCD8 INFG Normalized EC50.
Assay [4] relates to Human venous whole blood. Put plainly: Human whole blood IFN-γ assay.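 Note: blood from healthy donors exposed to compound for 1 h before stimulation with anti-CD3 and anti-CD28 at 1 µg/mL each, IFN-γ quantified in supernatant by AlphaLISA.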 The assay is classed as cell-based. As to conditions: human whole blood, read-out: INFg Whole Blood Normalized Agonist EC50.
Description: Human Whole Blood IFN-γ Assay
Human venous whole blood (22.5 μL per well), obtained from healthy donors, was pre-treated with compounds for one hour at 37° C. in a humidified 95% air/5% CO2 incubator. The blood was stimulated with 2.5 μL anti-human CD3 and anti-CD28 mAb at a final concentration of 1 μg/mL each for 24 hours at 37° C. IFN-γ in the supernatants was measured using AlphLISA kit (Cat # AL217).
The mark [5] stands for this setting: Homo sapiens, T-cell, 20 h, normalized to 3 μM reference compound with anti-CD3 plus anti-CD28 as 100% activation.
[6] abbreviates: Homo sapiens, 24 h, normalized to 3 μM reference compound with anti-CD3 plus anti-CD28 as 100% activation.
[7] abbreviates: normalized to 3 μM reference compound with anti-CD3 plus anti-CD28 as 100% activation.
The mark [8] stands for this setting: Homo sapiens, T-cell, 20 h, naïve human CD8 T cells, anti-CD3 plus anti-CD28, 3 μM reference compound = 100% activation.
The mark [9] stands for this setting: Homo sapiens, 24 h, anti-CD3 plus anti-CD28, 24 hours, 3 μM reference compound = 100% activation.
Where [10] appears, read: anti-CD3 plus anti-CD28, 24 hours, 3 μM reference compound = 100% activation.

Structures are written as SMILES. pEC50, pIC50: −log10 of the molar value. Like-named read-outs stand apart in the source and are kept apart here.

The term pIC50 denotes the IC50 on a negative log10 scale, so that one unit is a factor of ten. Usually pEC50 stands for the EC50 on a negative log10 scale, so that one unit is a factor of ten.

T2 sequence (Q13574 with tags, fused parts or gaps isoform Q13574-4): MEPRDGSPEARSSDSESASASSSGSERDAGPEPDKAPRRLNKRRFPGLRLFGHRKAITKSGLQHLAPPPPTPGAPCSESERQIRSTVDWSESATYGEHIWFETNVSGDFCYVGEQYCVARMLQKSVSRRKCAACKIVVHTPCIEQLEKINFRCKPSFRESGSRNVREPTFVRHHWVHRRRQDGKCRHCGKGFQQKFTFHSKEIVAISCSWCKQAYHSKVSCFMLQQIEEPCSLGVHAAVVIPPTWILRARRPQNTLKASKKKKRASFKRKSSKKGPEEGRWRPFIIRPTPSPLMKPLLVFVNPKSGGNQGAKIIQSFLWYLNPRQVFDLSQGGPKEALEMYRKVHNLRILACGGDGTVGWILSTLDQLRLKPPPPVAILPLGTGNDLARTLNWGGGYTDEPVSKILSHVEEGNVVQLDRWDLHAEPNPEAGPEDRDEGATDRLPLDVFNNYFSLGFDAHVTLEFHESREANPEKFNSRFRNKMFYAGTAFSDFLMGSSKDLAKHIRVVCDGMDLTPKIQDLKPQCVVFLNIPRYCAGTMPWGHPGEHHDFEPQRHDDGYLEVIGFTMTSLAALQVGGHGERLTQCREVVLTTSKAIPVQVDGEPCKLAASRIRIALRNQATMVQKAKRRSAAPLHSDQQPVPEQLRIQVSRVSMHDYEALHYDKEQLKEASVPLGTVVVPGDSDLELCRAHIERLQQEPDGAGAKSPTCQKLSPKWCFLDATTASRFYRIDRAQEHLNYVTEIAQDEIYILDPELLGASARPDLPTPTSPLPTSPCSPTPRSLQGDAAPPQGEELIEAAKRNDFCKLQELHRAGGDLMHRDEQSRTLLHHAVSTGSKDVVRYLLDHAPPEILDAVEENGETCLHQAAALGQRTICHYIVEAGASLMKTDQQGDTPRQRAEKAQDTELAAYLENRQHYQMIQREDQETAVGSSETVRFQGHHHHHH
T1 sequence (P23743 with tags, fused parts or gaps): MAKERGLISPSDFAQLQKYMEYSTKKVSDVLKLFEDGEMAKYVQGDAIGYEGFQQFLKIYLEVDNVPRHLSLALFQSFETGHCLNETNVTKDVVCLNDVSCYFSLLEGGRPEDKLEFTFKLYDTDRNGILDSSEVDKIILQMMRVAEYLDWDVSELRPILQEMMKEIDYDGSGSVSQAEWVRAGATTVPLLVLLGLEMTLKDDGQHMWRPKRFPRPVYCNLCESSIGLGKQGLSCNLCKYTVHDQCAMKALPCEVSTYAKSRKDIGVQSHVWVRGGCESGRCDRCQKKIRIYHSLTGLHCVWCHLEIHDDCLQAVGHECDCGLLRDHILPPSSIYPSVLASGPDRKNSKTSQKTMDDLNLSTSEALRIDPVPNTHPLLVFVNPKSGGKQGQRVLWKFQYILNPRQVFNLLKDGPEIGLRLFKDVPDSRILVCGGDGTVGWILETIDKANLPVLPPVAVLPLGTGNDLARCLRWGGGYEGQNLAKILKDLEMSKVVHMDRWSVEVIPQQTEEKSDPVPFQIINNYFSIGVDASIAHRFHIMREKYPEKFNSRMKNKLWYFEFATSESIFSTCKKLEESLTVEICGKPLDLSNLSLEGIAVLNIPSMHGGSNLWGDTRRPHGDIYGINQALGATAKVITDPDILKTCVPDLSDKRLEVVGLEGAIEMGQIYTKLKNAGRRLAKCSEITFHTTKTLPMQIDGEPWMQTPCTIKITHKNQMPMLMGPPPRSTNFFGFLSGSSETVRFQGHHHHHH

For the molecule `C[C@@H]1CN(c2cc(=O)n(C)c3ccc(C#N)nc23)[C@@H](C)CN1C(c1ccc(F)cc1)c1ccc(C(F)(F)F)cc1` (stereo partly drawn) [Example 294, 8-[(2S,5R)-4-[(4-fluorophenyl)[4-(trifluoromethyl)phenyl]methyl]-2,5-dimethylpiperazin-1-yl]-5-methyl-6-oxo-5,6-dihydro-1,5-naphthyridine-2-carbonitrile], the pIC50 in assay [1] (liposome (LIPGLO) assay) was 6.72; in assay [2] (liposome (LIPGLO) assay), 6.48. Besides, the pEC50 is 7.70 in assay [3] (setting [5]) and 6.25 in assay [4] (setting [6]).

Take `Cc1ccc(C(c2ccc(F)cc2)N2C[C@H](C)N(c3cc(=O)n(C)c4ccc(C#N)nc34)C[C@H]2C)cc1` (stereo partly drawn) [Example 295, 8-[(2S,5R)-4-[(4-fluorophenyl)(4-methylphenyl)methyl]-2,5-dimethylpiperazin-1-yl]-5-methyl-6-oxo-5,6-dihydro-1,5-naphthyridine-2-carbonitrile]: the pIC50 in assay [1] (liposome (LIPGLO) assay) was 5.74; in assay [2] (liposome (LIPGLO) assay) it was 5.89. The pEC50 in assay [3] (setting [5]) was 6.70; in assay [4] (setting [6]) it was 6.19.

In the case of `C[C@@H]1CN(c2cc(=O)n(C)c3ccc(C#N)nc23)[C@@H](C)CN1C(c1ccccc1)c1cccc(F)c1` (stereo partly drawn) [Example 296, 8-[(2S,5R)-4-[(3-fluorophenyl)(phenyl)methyl]-2,5-dimethylpiperazin-1-yl]-5-methyl-6-oxo-5,6-dihydro-1,5-naphthyridine-2-carbonitrile], the figures for the pIC50 in assay [1] (liposome (LIPGLO) assay) and in assay [2] (liposome (LIPGLO) assay) were 6.20 and 6.05, respectively. For the same molecule, the pEC50 in assay [3] (setting [5]) was 6.40; in assay [4] (setting [6]), 5.92.

`C[C@@H]1CN(c2cc(=O)n(C)c3ccc(C#N)nc23)[C@@H](C)CN1Cc1ccc(F)cc1` [Example 297, 8-[(2S,5R)-4-[(4-fluorophenyl)methyl]-2,5-dimethylpiperazin-1-yl]-5-methyl-6-oxo-5,6-dihydro-1,5-naphthyridine-2-carbonitrile]: the pIC50 was 7.82 in assay [1] (liposome (LIPGLO) assay) and 6.13 in assay [2] (liposome (LIPGLO) assay). The pEC50 in assay [3] (setting [5]) was 6.31; in assay [4] (setting [6]), 5.82.

Regarding `C[C@@H]1CN(c2cc(=O)n(C)c3ccc(C#N)nc23)[C@@H](C)CN1C(c1ccc(Cl)cc1)c1ccc(C#N)cc1` (stereo partly drawn) [Example 298, 8-((2S,5R)-4-((4-chlorophenyl)(4-cyanophenyl)methyl)-2,5-dimethylpiperazin-1-yl)-5-methyl-6-oxo-5,6-dihydro-1,5-naphthyridine-2-carbonitrile], the pIC50 in assay [1] (liposome (LIPGLO) assay) is 5.82; in assay [2] (liposome (LIPGLO) assay) it was 5.62. Further, the pEC50 in assay [3] (setting [5]) was 7.54; in assay [4] (setting [6]), 6.24.

In the case of `Cc1ccc(C(c2ccc(Cl)cc2)N2C[C@H](C)N(c3cc(=O)n(C)c4ccc(C#N)nc34)C[C@H]2C)cc1` (stereo partly drawn) [Example 299, 8-[(2S,5R)-4-[(4-chlorophenyl)(4-methylphenyl)methyl]-2,5-dimethylpiperazin-1-yl]-5-methyl-6-oxo-5,6-dihydro-1,5-naphthyridine-2-carbonitrile], the figures for the negative-log IC50 (pIC50) in assay [1] (liposome (LIPGLO) assay) and in assay [2] (liposome (LIPGLO) assay) were 5.77 and 5.96, respectively. The values for the pEC50 in assay [3] (setting [5]) and in assay [4] (setting [6]) were 7.77 and 6.19, respectively.

Take `C[C@@H]1CN(c2cc(=O)n(C)c3ccc(C#N)nc23)[C@@H](C)CN1C(c1ccc(F)cc1)c1ccc(Cl)cc1` (stereo partly drawn) [Example 300, 8-[(2S,5R)-4-[(4-chlorophenyl)(4-fluorophenyl)methyl]-2,5-dimethylpiperazin-1-yl]-5-methyl-6-oxo-5,6-dihydro-1,5-naphthyridine-2-carbonitrile]: the pIC50 in assay [1] (liposome (LIPGLO) assay) was 6.05; in assay [2] (liposome (LIPGLO) assay), 6.00. For the same molecule, the negative logarithm of the EC50 (pEC50) was 7.68 in assay [3] (setting [5]) and 6.92 in assay [4] (setting [6]).

As to `C[C@@H]1CN(c2c(F)c(=O)n(C)c3ccc(C#N)nc23)[C@@H](C)CN1C(c1ccc(F)cc1)c1ccc(C#N)cc1` (stereo partly drawn) [Example 327, 8-((2S,5R)-4-((4-cyanophenyl)(4-fluorophenyl)methyl)-2,5-dimethylpiperazin-1-yl)-7-fluoro-5-methyl-6-oxo-5,6-dihydro-1,5-naphthyridine-2-carbonitrile], the pIC50 in assay [1] (liposome (LIPGLO) assay) is 5.49; in assay [2] (liposome (LIPGLO) assay) it was 5.31. Further, the negative logarithm of the EC50 (pEC50) in assay [3] (setting [7]) is 5.92; in assay [4] (setting [6]), 6.15.

Consider `C[C@@H]1CN(c2c(F)c(=O)n(C)c3ccc(C#N)nc23)[C@@H](C)CN1C(c1ccc(F)cc1)c1ccc(C#N)cc1` (stereo partly drawn) [Example 328, 8-((2S,5R)-4-((4-cyanophenyl)(4-fluorophenyl)methyl)-2,5-dimethylpiperazin-1-yl)-7-fluoro-5-methyl-6-oxo-5,6-dihydro-1,5-naphthyridine-2-carbonitrile], for which the values for the pIC50 in assay [1] (liposome (LIPGLO) assay) and in assay [2] (liposome (LIPGLO) assay) were 5.92 and 5.59, respectively. The negative logarithm of the EC50 (pEC50) in assay [3] (setting [7]) was 5.22; in assay [4] (setting [7]), 6.00.

For `[2H]C([2H])(c1c(F)cc(F)cc1F)N1C[C@H](C)N(c2cc(=O)n(C)c3ccc(C#N)nc23)C[C@H]1C` [Example 430, 8-((2S,5R)-2,5-dimethyl-4-((2,4,6-trifluorophenyl)methyl-d2)piperazin-1-yl)-5-methyl-6-oxo-5,6-dihydro-1,5-naphthyridine-2-carbonitrile], the pIC50 in assay [1] (liposome (LIPGLO) assay) is 6.39; in assay [2] (liposome (LIPGLO) assay), 5.70. The pEC50 is 7.34 in assay [3] (setting [5]) and 6.30 in assay [4] (setting [6]).

Regarding `C[C@@H]1CN(c2cc(=O)n(C)c3ccc(C#N)nc23)[C@@H](C)CN1C(c1ccc(Cl)cc1)c1cccc2c1OCCO2` (stereo partly drawn) [Example 447, 8-((2S,5R)-4-((4-chlorophenyl)(2,3-dihydrobenzo[b][1,4]dioxin-5-yl)methyl)-2,5-dimethylpiperazin-1-yl)-5-methyl-6-oxo-5,6-dihydro-1,5-naphthyridine-2-carbonitrile], the results for the pIC50 in assay [1] (liposome (LIPGLO) assay) and in assay [2] (liposome (LIPGLO) assay) were 5.11 and 6.54, respectively. Besides, the pEC50 was 7.30 in assay [3] (setting [5]) and 6.22 in assay [4] (setting [6]).

Consider `Cc1ccc(C(c2cccc(C)n2)N2C[C@H](C)N(c3cc(=O)n(C)c4ccc(C#N)nc34)C[C@H]2C)cc1` (stereo partly drawn) [Example 450, 8-((2S,5R)-2,5-dimethyl-4-((6-methylpyridin-2-yl)(p-tolyl)methyl)piperazin-1-yl)-5-methyl-6-oxo-5,6-dihydro-1,5-naphthyridine-2-carbonitrile], for which the figures for the negative logarithm of the IC50 (pIC50) in assay [1] (liposome (LIPGLO) assay) and in assay [2] (liposome (LIPGLO) assay) were 5.59 and 6.54, respectively. In addition, the pEC50 in assay [3] (setting [5]) was 7.15; in assay [4] (setting [6]) it was 6.55.

`Cc1ccc(C(c2cccc(F)n2)N2C[C@H](C)N(c3cc(=O)n(C)c4ccc(C#N)nc34)C[C@H]2C)cc1` (stereo partly drawn) [Example 476, 8-((2S,5R)-4-((6-fluoropyridin-2-yl)(p-tolyl)methyl)-2,5-dimethylpiperazin-1-yl)-5-methyl-6-oxo-5,6-dihydro-1,5-naphthyridine-2-carbonitrile]: the pIC50 in assay [1] (liposome (LIPGLO) assay) is 6.03; in assay [2] (liposome (LIPGLO) assay), 6.52. In addition, the values for the pEC50 in assay [3] (setting [5]) and in assay [4] (setting [6]) were 6.80 and 6.20, respectively.

As to `C[C@@H]1CN(c2cc(=O)n(C)c3ccc(C#N)nc23)[C@@H](C)CN1C(c1ccc(F)cc1)c1cccc2c1OC(F)(F)O2` (stereo partly drawn) [Example 668], the results for the pIC50 in assay [1] (liposome (LIPGLO) assay) and in assay [2] (liposome (LIPGLO) assay) were 3.92 and 5.51, respectively. Besides, the pEC50 was 7.46 in assay [3] (setting [7]) and 6.22 in assay [4] (setting [6]).

For the molecule `C[C@@H]1CN(c2cc(=O)n(C)c3ccc(C#N)nc23)[C@@H](C)CN1C(c1ccc(F)cc1)c1cccc2c1OC(F)(F)O2` (stereo partly drawn) [Example 669], the negative-log IC50 (pIC50) was 3.85 in assay [1] (liposome (LIPGLO) assay) and 5.32 in assay [2] (liposome (LIPGLO) assay). Also, the values for the negative-log EC50 (pEC50) in assay [3] (setting [7]) and in assay [4] (setting [7]) were 7.02 and 6.07, respectively.

Regarding `C[C@@H]1CN(c2cc(=O)n(C)c3ccc(C#N)nc23)[C@@H](C)CN1C(c1ccc(F)cc1)c1nc(C(C)(C)C)no1` (stereo partly drawn) [Example 737], the pIC50 in assay [1] (DGKα liposome (LIPGLO) assay) is 5.96; in assay [2] (DGKζ liposome (LIPGLO) assay), 6.89. Also, the figures for the pEC50 in assay [3] (setting [8]) and in assay [4] (setting [9]) were 9.51 and 7.37, respectively.

For the molecule `Cc1ccc(C(c2ccc(C)cc2)N2C[C@H](C)N(c3c(C#N)c(=O)n(C)c4ccc(C#N)nc34)C[C@H]2C)cc1` [Example 806], the pIC50 in assay [1] (DGKα liposome (LIPGLO) assay) was 5.20; in assay [2] (DGKζ liposome (LIPGLO) assay), 6.41. Also, the pEC50 in assay [3] (setting [8]) is 7.74; in assay [4] (setting [9]), 6.16.

For `Cc1ccc(C(c2ccc(F)cn2)N2C[C@H](C)N(c3c(C#N)c(=O)n(C)c4ccc(C#N)nc34)C[C@H]2C)cc1` (stereo partly drawn) [Example 833], the pIC50 in assay [1] (DGKα liposome (LIPGLO) assay) was 5.70; in assay [2] (DGKζ liposome (LIPGLO) assay), 5.55. Besides, the pEC50 in assay [3] (setting [8]) was 6.49; in assay [4] (setting [9]) it was 6.17.

`Cc1ccc(C(c2ccc(F)cc2)N2CCN(c3c(C#N)c(=O)n(C)c4ccc(C#N)nc34)C[C@H]2C)cc1` (stereo partly drawn) [Example 889]: the pIC50 in assay [1] (DGKα liposome (LIPGLO) assay) was 5.89; in assay [2] (DGKζ liposome (LIPGLO) assay), 6.43. Besides, the pEC50 was 6.66 in assay [3] (setting [8]) and 6.17 in assay [4] (setting [10]).

Regarding `C[C@@H]1CN(c2c(C#N)c(=O)n(C)c3ccc(C#N)nc23)CCN1C(c1ccc(F)cc1)c1ccc(F)cn1` (stereo partly drawn) [Example 903], the pIC50 in assay [1] (DGKα liposome (LIPGLO) assay) is 6.20; in assay [2] (DGKζ liposome (LIPGLO) assay), 5.46. Moreover, the negative-log EC50 (pEC50) is 6.85 in assay [3] (setting [8]) and 6.14 in assay [4] (setting [10]).

Take `C[C@@H]1CN(c2c(C#N)c(=O)n(C)c3ccc(C#N)nc23)CCN1C(c1cccc(Cl)c1)c1ccc(F)cn1` (stereo partly drawn) [Example 927]: the pIC50 in assay [1] (DGKα liposome (LIPGLO) assay) is 5.59; in assay [2] (DGKζ liposome (LIPGLO) assay), 5.80. Further, the pEC50 in assay [3] (setting [8]) is 6.52; in assay [4] (setting [10]), 6.10.
